Tests used:
Type in all cases: functional
[1] = Cytotoxicity against human SF539 cells assessed as cell growth at 10 uM after 2 days by SRB assay relative to control; details: SF-539, 48 h, read-out: Activity
[2] = Cytotoxicity against human SF295 cells assessed as cell growth at 10 uM after 2 days by SRB assay relative to control; details: SF-295, 48 h, read-out: Activity
[3] = Cytotoxicity against human SF268 cells assessed as cell growth at 10 uM after 2 days by SRB assay relative to control; details: SF-268, 48 h, read-out: Activity
[4] = Cytotoxicity against human UACC62 cells assessed as cell growth at 10 uM after 2 days by SRB assay relative to control; details: UACC-62, 48 h, read-out: Activity
[5] = Cytotoxicity against human SK-MEL-5 cells assessed as cell growth at 10 uM after 2 days by SRB assay relative to control; details: SK-MEL-5, 48 h, read-out: Activity
[6] = Cytotoxicity against human SK-MEL-28 cells assessed as cell growth at 10 uM after 2 days by SRB assay relative to control; details: SK-MEL-28, 48 h, read-out: Activity
[7] = Cytotoxicity against human MALME-3M cells assessed as cell growth at 10 uM after 2 days by SRB assay relative to control; details: 48 h, read-out: Activity
[8] = Cytotoxicity against human M14 cells assessed as cell growth at 10 uM after 2 days by SRB assay relative to control; details: M14, 48 h, read-out: Activity
[9] = Cytotoxicity against human UO31 cells assessed as cell growth at 10 uM after 2 days by SRB assay relative to control; details: UO-31, 48 h, read-out: Activity
[10] = Cytotoxicity against human TK10 cells assessed as cell growth at 10 uM after 2 days by SRB assay relative to control; details: TK-10, 48 h, read-out: Activity
[11] = Cytotoxicity against human SN12C cells assessed as cell growth at 10 uM after 2 days by SRB assay relative to control; details: 48 h, read-out: Activity
[12] = Cytotoxicity against human RXF393 cells assessed as cell growth at 10 uM after 2 days by SRB assay relative to control; details: RXF 393, 48 h, read-out: Activity
[13] = Cytotoxicity against human ACHN cells assessed as cell growth at 10 uM after 2 days by SRB assay relative to control; details: 48 h, read-out: Activity
[14] = Cytotoxicity against human K562 cells assessed as cell growth at 10 uM after 2 days by SRB assay relative to control; details: K562, 48 h, read-out: Activity
[15] = Cytotoxicity against human HL-60(TB) cells assessed as cell growth at 10 uM after 2 days by SRB assay relative to control; details: HL-60, 48 h, read-out: Activity
[16] = Cytotoxicity against human CCRF-CEM cells assessed as cell growth at 10 uM after 2 days by SRB assay relative to control; details: 48 h, read-out: Activity
[17] = Cytotoxicity against human SKOV3 cells assessed as cell growth at 10 uM after 2 days by SRB assay relative to control; details: SK-OV-3, 48 h, read-out: Activity
[18] = Cytotoxicity against human OVCAR8 cells assessed as cell growth at 10 uM after 2 days by SRB assay relative to control; details: OVCAR-8, 48 h, read-out: Activity
[19] = Cytotoxicity against human OVCAR4 cells assessed as cell growth at 10 uM after 2 days by SRB assay relative to control; details: OVCAR-4, 48 h, read-out: Activity
[20] = Cytotoxicity against human IGROV1 cells assessed as cell growth at 10 uM after 2 days by SRB assay relative to control; details: IGROV-1, 48 h, read-out: Activity
[21] = Cytotoxicity against human T47D cells assessed as cell growth at 10 uM after 2 days by SRB assay relative to control; details: 48 h, read-out: Activity
[22] = Cytotoxicity against human NCI/ADR-RES cells assessed as cell growth at 10 uM after 2 days by SRB assay relative to control; details: 48 h, read-out: Activity
[23] = Cytotoxicity against human MDA-MB-435 cells assessed as cell growth at 10 uM after 2 days by SRB assay relative to control; details: MDA-MB-435, 48 h, read-out: Activity
[24] = Cytotoxicity against human SW620 cells assessed as cell growth at 10 uM after 2 days by SRB assay relative to control; details: SW-620, 48 h, read-out: Activity
[25] = Cytotoxicity against human KM12 cells assessed as cell growth at 10 uM after 2 days by SRB assay relative to control; details: KM12, 48 h, read-out: Activity
[26] = Cytotoxicity against human HT-29 cells assessed as cell growth at 10 uM after 2 days by SRB assay relative to control; details: HT-29, 48 h, read-out: Activity
[27] = Cytotoxicity against human HCT15 cells assessed as cell growth at 10 uM after 2 days by SRB assay relative to control; details: HCT-15, 48 h, read-out: Activity
[28] = Cytotoxicity against human HCT116 cells assessed as cell growth at 10 uM after 2 days by SRB assay relative to control; details: HCT-116, 48 h, read-out: Activity
[29] = Cytotoxicity against human NCI-H522 cells assessed as cell growth at 10 uM after 2 days by SRB assay relative to control; details: NCI-H522, 48 h, read-out: Activity
[30] = Cytotoxicity against human NCI-H460 cells assessed as cell growth at 10 uM after 2 days by SRB assay relative to control; details: NCI-H460, 48 h, read-out: Activity
[31] = Cytotoxicity against human NCI-H322M cells assessed as cell growth at 10 uM after 2 days by SRB assay relative to control; details: 48 h, read-out: Activity
[32] = Cytotoxicity against human NCI-H23 cells assessed as cell growth at 10 uM after 2 days by SRB assay relative to control; details: NCI-H23, 48 h, read-out: Activity
[33] = Cytotoxicity against human NCI-H226 cells assessed as cell growth at 10 uM after 2 days by SRB assay relative to control; details: NCI-H226, 48 h, read-out: Activity
[34] = Cytotoxicity against human HOP62 cells assessed as cell growth at 10 uM after 2 days by SRB assay relative to control; details: HOP-62, 48 h, read-out: Activity
[35] = Cytotoxicity against human EKVX cells assessed as cell growth at 10 uM after 2 days by SRB assay relative to control; details: 48 h, read-out: Activity
[36] = Cytotoxicity against human SNB19 cells assessed as cell growth at 10 uM after 2 days by SRB assay relative to control; details: SNB-19, 48 h, read-out: Activity
[37] = Cytotoxicity against human SNB75 cells assessed as cell growth at 10 uM after 2 days by SRB assay relative to control; details: SNB-75, 48 h, read-out: Activity
[38] = Cytotoxicity against human U251 cells assessed as cell growth at 10 uM after 2 days by SRB assay relative to control; details: U-251, 48 h, read-out: Activity

Row | Compound | growth at 10 µM [1] | growth at 10 µM [2] | growth at 10 µM [3] | growth at 10 µM [4] | growth at 10 µM [5] | growth at 10 µM [6] | growth at 10 µM [7] | growth at 10 µM [8] | growth at 10 µM [9] | growth at 10 µM [10] | growth at 10 µM [11] | growth at 10 µM [12] | growth at 10 µM [13] | growth at 10 µM [14] | growth at 10 µM [15] | growth at 10 µM [16] | growth at 10 µM [17] | growth at 10 µM [18] | growth at 10 µM [19] | growth at 10 µM [20] | other results
1 | Nc1c(N[C@H]2C=C[C@@H](CO)C2)c(=O)c1=O | 98.3% | 128% | 165% | 98.3% | 104% | 128% | 100% | 101% | 84.6% | 115% | 105% | 143% | 103% | 99.6% | 96.7% | 89.3% | 112% | 92.8% | 111% | 96.2% | growth at 10 µM [21]: 105%; growth at 10 µM [22]: 108%; growth at 10 µM [23]: 114%; growth at 10 µM [24]: 105%; growth at 10 µM [25]: 122%; growth at 10 µM [26]: 110%; growth at 10 µM [27]: 103%; growth at 10 µM [28]: 108%; growth at 10 µM [29]: 90.1%; growth at 10 µM [30]: 104%; growth at 10 µM [31]: 106%; growth at 10 µM [32]: 111%; growth at 10 µM [33]: 107%; growth at 10 µM [34]: 96.4%; growth at 10 µM [35]: 121%; growth at 10 µM [36]: 110%; growth at 10 µM [37]: 111%; growth at 10 µM [38]: 103%
2 | COc1c(N[C@H]2C=C[C@@H](CO)C2)c(=O)c1=O | 101% | 118% | 112% | 101% | 103% | 125% | 109% | 97.1% | 88.3% | 105% | 112% | 126% | 104% | 111% | 96.4% | 108% | 110% | 94.6% | 109% | 93% | growth at 10 µM [21]: 106%; growth at 10 µM [22]: 107%; growth at 10 µM [23]: 118%; growth at 10 µM [24]: 105%; growth at 10 µM [25]: 87.7%; growth at 10 µM [26]: 113%; growth at 10 µM [27]: 111%; growth at 10 µM [28]: 95.7%; growth at 10 µM [29]: 86.5%; growth at 10 µM [30]: 105%; growth at 10 µM [31]: 108%; growth at 10 µM [32]: 108%; growth at 10 µM [33]: 105%; growth at 10 µM [34]: 96%; growth at 10 µM [35]: 125%; growth at 10 µM [36]: 106%; growth at 10 µM [37]: 107%; growth at 10 µM [38]: 103%
